This passage reports IC50 results from patent US10590081B2, “Guanidine compounds and use thereof” (ImmunoMet Therapeutics Inc., priority 2015, dated 2020).

Where a name gives a salt, the structure may show the parent alone. Read-outs that look alike come from different tables or passages of the source. A value given as a limit tells only on which side of the number the result lay.

The subject of assay [1] is A549 cells. As to the kind of experiment: Test for inhibition of OCR and enhancement of ECAR (XF Analyzer). The following applies: 24 hrs treatment, oxygen consumption rate. Format: cell-based. From the text:
Measurement of Mitochondrial Complex I Inhibition
The electron transfer complex in mitochondria is composed of 5 complexes. The complex I accept electrons from NADH produced from glycolysis and TCA cycle and the electrons move to complex […] and the electron is finally transferred to O2 and water molecule is generated. During the electron transfer, proton gradient is generated and the chemical gradient is a driving source to synthesize ATP at complex V. The mitochondrial inhibition of complex I indirectly assessed by measuring the oxygen consumption rate (OCR) at complex IV. […] The solution outside of cells becomes acidic (lower pH) as lactate is transported to outside of cells. OCR and Extracellular acidification rate (ECAR) are determined by XF Analyzer (Seahorse Biosciences).
A549 cells were purchased from American Type Tissue Culture Collection (CCL-185™) and cultured in RPMI 1640 supplied with 10% fetal bovine serum (FBS) and antibiotic-antimycotic (Lifetech, CA). A549 cells were separated with 0.5% Trypsin-EDTA and 3,000 cells were plated on 1 mg/ml poly-D-lysine (Sigma, P6407) coated XF 96 well […]. A549 cells were allowed to adhere to the wells for 24 hours under the condition of temperature, 37° C. and 5% CO2. The sensor cartridge of XF Analyzer was soaked in 200 μl of Calibrant solution (Seahorse, MA) in a clear 96-well plate at 37° C. for 24 hours. The compounds of the present invention were diluted with RPMI 1640 without FBS, transferred to A549 cells on XF 96 well plate, and incubated further for 23 hours at 37° C. and 5% CO2. After incubation, the compound solution was exchanged with pre-warmed and pH adjusted (pH7.4) XF assay media (Seahorse) supplied with 15 mM D-glucose (Sigma), 15 mM sodium pyruvate (Lifetechnologies, CA) and 4 mM L-glutamine (Lifetechnologies, CA). The compounds of present invention were prepared in XF Assay media and added to the assay plate. The assay plate was equilibrated in XF Analyzer for 1 hour, and the reading were started by sensor cartridge. The cytotoxicity assay was followed using Cyquant (Lifetechnologies, CA) in order to calibrate the inhibition with cytotoxicity of compounds. The concentrations of the compounds were tested at 0, 0.5, 1, 5, 10 and 20 μM and IC50 value was obtained from the inhibited values. That is, from OCR inhibition values at each concentration of the compound, IC50 was calculated according to Prism's dose response curve fitting.
In Table 1, the levels of OCR IC50 are evaluated by the following.
According to the test results of the compounds, the compounds were classified into A, B and C.

Assay [2] deals with SK-MEL-28 cells. The assay can be described thus: Cytotoxicity in low glucose condition (MTT assay). The class given is cell-based. The following applies: 0.75 mM glucose, 72 hours treatment, read-out: SK-MEL-280.75 mM glucose cell viability (IC50 μM). From the text: Cytotoxicity Assay in Low Glucose Condition
The inhibition of oxidative phosphorylation (OXPHOS) is not cytotoxic to cells in normal glucose condition, because it is postulated that normal cells have compensatory mechanism under energy stress conditions such as low glucose. However OXPHOS inhibitors show cytotoxic effect on cells in the glucose deprived condition (BirsoyK, 2014). The glucose deprived condition is observed in tumor microenvironment potentially due to poor angiogenesis. Therefore the OXPHOS inhibitors may show anti-cancer effect on cancer cells in low glucose condition that may depict tumor microenvironment.
The compounds of the present invention were evaluated their cytotoxicity in SK-MEL-28, melanoma with 0.75 mM glucose supplement. The cytotoxic effect is compared with the cytotoxicity caused by phenformin. The cytotoxicity in low glucose condition is correlated with inhibition of oxygen consumption in mitochondria.
SK-MEL-28 (HTB-72) is a melanoma cell line obtained from ATCC (MA) and cultured in RPMI 1640 media (Lifetechnologies, CA) with supplement of 10% FBS and antibiotic-antimycotic (Lifetechnologies, CA). RPMI 1640 (−Glucose) was used to prepare low glucose media and 0.75 mM glucose was supplied with D-(+)-glucose solution from Sigma. SK-MEL-28 cells were separated from culture plate using 0.5% trypsin-EDTA and 1,250 cells were plated in 96-well plate with low glucose media. After incubation at 37° C. for 24 hour, 5% CO2, the cells were treated with the compounds of present invention in FBS-free media for 72 hours. The cytotoxicity was measured by the MTT (AMRESCO, OH) assay. NADH-dependent cellular oxidoreductase reduces MTT to its insoluble […] with purple color. The enzyme depends on cell number or energy state of cells. 10 μl of 5 mg/ml MTT solution was added to each well of the assay plate and skip the well for blank. The plate was incubated at 37° C. and 5% CO2 for 2 hours. The MTT solution was removed from each well and 100 μl of DMSO was added. The plate was read by VICTOR X3 Multilabel Counter at the wavelength of 550 nm. In Table 2, the levels of IC50 are evaluated by the following criteria.
According to the concentration of compound for killing the half of cell populations (the levels of IC50), the compounds were classified into A, B and C, when the compounds were treated on SK-MEL-28 cells at 0.75 mM glucose.
(Tetrazolium dyes change colour on reduction, which living cells bring about.)

`N=C(NC(=N)N1CCC(F)(F)C1)Nc1ccc(Oc2ccccc2)cc1` [Example 28, N—(N-(4-phenoxyphenyl)carbamimidoyl)-3,3-difluoropyrrolidine-1-carboximidamide acetate]: the IC50 (as a rule, the concentration needed to halve the response being measured) in assay [1] (Homo sapiens) was 2 to 4 µM; in assay [2] (Homo sapiens, SK-MEL-28, 72 h), below 6 µM.
With `N=C(NC(=N)N1CCC(F)(F)C1)Nc1cccc(Oc2ccccc2)c1` [Example 29, N—(N-(3-phenoxyphenyl)carbamimidoyl)-3,3-difluoropyrrolidine-1-carboximidamide acetate], the IC50 was below 2 µM in assay [1] (Homo sapiens) and below 6 µM in assay [2] (Homo sapiens, SK-MEL-28, 72 h).
`N=C(NC(=N)N1CCC(F)(F)C1)Nc1ccc(C(F)(F)F)cc1` [Example 30, N—(N-(4-(trifluoromethyl)phenyl)carbamimidoyl)-3,3-difluoropyrrolidine-1-carboximidamide acetate]: the IC50 in assay [1] (Homo sapiens) lay within 2 to 4 µM; in assay [2] (Homo sapiens, SK-MEL-28, 72 h) it was 6 to 15 µM.
The corresponding values for `N=C(NC(=N)N1CCC(F)(F)C1)Nc1ccc(I)c(Cl)c1` [Example 31, N—(N-(3-chloro-4-iodophenyl)carbamimidoyl)-3,3-difluoropyrrolidine-1-carboximidamide acetate] are 2 to 4 µM and 6 to 15 µM.
In the case of `N=C(NC(=N)N1CCC(F)(F)C1)Nc1ccc(OC(F)(F)F)c(Cl)c1` [Example 38, N—(N-(3-chloro-4-(trifluoromethoxy)phenyl)carbamimidoyl)-3,3-difluoropyrrolidine-1-carboximidamide acetate], the half-maximal inhibitory concentration (IC50) was in the range of 2 to 4 µM in assay [1] (Homo sapiens) and 6 to 15 µM in assay [2] (Homo sapiens, SK-MEL-28, 72 h).
On the same counts, the results for `N=C(NCc1ccc(Cl)c(Cl)c1)NC(=N)N1CCC(F)(F)CC1` [Example 42, N—(N-(3,4-dichlorobenzyl)carbamimidoyl)-4,4-difluoropiperidine-1-carboximidamide hydrochloride] are above 4 µM and 6 to 15 µM.
Turning to “N—(N-(4-(trifluoromethythio)phenyl)carbamimidoyl)-3,3-difluoropyrrolidine-1-carboximidamide acetate [Example 32]”, the concentration for half-maximal inhibition (IC50) in assay [1] was 2 to 4 µM; in assay [2] it was below 6 µM.
